Data: US20180006232A1, “HETEROCYCLIC COMPOUND, LIGHT-EMITTING ELEMENT, LIGHT-EMITTING DEVICE, ELECTRONIC APPLIANCE, AND LIGHTING DEVICE” (Semiconductor Energy Laboratory Co., Ltd., priority 2014, published 2018)
Read-outs that look alike come from different tables or passages of the source.

Experiment: Examination of solubility in organic solvents
Assay type: physicochemical
Conditions: for solubility: organic solvent or mixture, thermodynamic from solid
Source text: The heterocyclic compound which is one embodiment of the present invention and used in this example was 2mFBPDBq (sample 1). Note that 2mFBPDBq was synthesized by the synthesis method described in Example 1. In addition, the compound used for comparison was 2mDBTBPDBq-II (comparison sample 2). The purity of each compound was 99.9%. The structural formulae of the compounds are shown below.
The solvents used in this example were the four kinds of solvents: toluene, chloroform, ethyl acetate, and acetone.
A method of examining the solubility of the compound of each sample is described. First, 10 mg of the compound was put into a small bottle and to this was added 1 mL of a solvent. Then, whether the compound was dissolved at room temperature or not was checked. When the compound was not dissolved at room temperature, ultrasonic wave irradiation and then heating using a dryer were performed, so that whether the compound was dissolved was checked.
When the compound was not dissolved after heating, the volume of the solvent was increased to 10 mL, so that whether the compound was dissolved at room temperature was checked. When the compound was not dissolved at room temperature, ultrasonic wave irradiation and then heating using a dryer were performed, so that whether the compound was dissolved was checked.

Compound	Solubility in Acetone (acetone, 10 mg compound in 1 mL, then 10 mL, room temperature, then ultrasonic wave irradiation and heating)	Solubility in Chloroform (chloroform, 10 mg compound in 1 mL, then 10 mL, room temperature, then ultrasonic wave irradiation and heating)	Solubility in Ethyl acetate (ethyl acetate, 10 mg compound in 1 mL, then 10 mL, room temperature, then ultrasonic wave irradiation and heating)	solubility (toluene, 10 mg compound in 1 mL, then 10 mL, room temperature, then ultrasonic wave irradiation and heating, read-out: Solubility in Toluene) [µg/mL]	Solubility compared with comparison compound 2mDBTBPDBq-II (organic solvents (toluene, chloroform, ethyl acetate, acetone), summary in words)	solubility [µg/mL]
CC1(C)c2ccccc2-c2ccc(-c3cccc(-c4cccc(-c5cnc6c7ccccc7c7ccccc7c6n5)c4)c3)cc21 [2mFBPDBq, 2-{3-[3-(9,9-dimethylfluoren-2-yl)phenyl]phenyl}dibenzo[f,h]quinoxaline]	□ (dissolved at 10 mg/10 mL when heated)	◯ (dissolved at 10 mg/mL when heated)	□ (dissolved at 10 mg/10 mL when heated)	> 10000	higher solubility	–
c1cc(-c2cccc(-c3cccc4c3sc3ccccc34)c2)cc(-c2cnc3c4ccccc4c4ccccc4c3n2)c1 [2mDBTBPDBq-II, 2-[3′-(dibenzothiophen-4-yl)biphenyl-3-yl]dibenzo[f,h]quinoxaline, reference compound]	–	–	–	–	–	< 1000
